Consider 3 compounds from US20050239656A1, “Pyridine compounds or salts thereof and herbicides containing the same” (priority 2002, published 2005).

In assay [1] the test system is barnyardgrass. In words: Test Example 1: foliage treatment, upland pot test. It is filed as in vivo, Echinochloa crus-galli L. Particulars: active ingredient 500 g/ha, observed 18th to 23rd day, 0 = non-treated, 100 = complete kill. The method in brief: (§1)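 Each plant species was sprayed once on its foliage, with wheat at 1.3–2.4, soybean at 0.1–0.4, barnyardgrass at 1.3–2.8 and rice at 1.2–2.6 leaves. Visual ratings of growth inhibition, 0 to 100%, followed 18–23 days later.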

Assay [2] has as its system crabgrass. In words: Test Example 1: foliage treatment, upland pot test. It is filed as in vivo, Digitaria sanguinalis L. The following applies: active ingredient 500 g/ha, observed 18th to 23rd day, 0 = non-treated, 100 = complete kill.
In assay [3] the test system is green foxtail. The assay is described as follows: Test Example 1: foliage treatment, upland pot test. The following applies: active ingredient 500 g/ha, observed 18th to 23rd day, 0 = non-treated, 100 = complete kill. It counts as in vivo, Setaria viridis L.
The test system of assay [4] is redroot pigweed. In words: Test Example 1: foliage treatment, upland pot test. It counts as in vivo, Amaranthus retroflexus L. The following applies: active ingredient 500 g/ha, observed 18th to 23rd day, 0 = non-treated, 100 = complete kill.
Assay [5] deals with prickly sida. In words: Test Example 1: foliage treatment, upland pot test. Particulars: active ingredient 500 g/ha, observed 18th to 23rd day, 0 = non-treated, 100 = complete kill. It counts as in vivo, Sida spinosa L.
Assay [6] has as its system velvetleaf. In words: Test Example 1: foliage treatment, upland pot test. It counts as in vivo, Abutilon theophrasti MEDIC. The following applies: active ingredient 500 g/ha, observed 18th to 23rd day, 0 = non-treated, 100 = complete kill.
The test system of assay [7] is rice. In words: Test Example 1: foliage treatment, upland pot test. It counts as in vivo, Oryza sativa L. Particulars: crop, active ingredient 500 g/ha, observed 18th to 23rd day, 0 = non-treated, 100 = complete kill. In a few lines:
as §1

In assay [8] the test system is corn. The assay is described as follows: Test Example 1: foliage treatment, upland pot test. It counts as in vivo, Zea mays L. The following applies: crop, active ingredient 500 g/ha, observed 18th to 23rd day, 0 = non-treated, 100 = complete kill. In a few lines: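 In this upland pot foliage test, corn plants at 2.1 to 3.2 leaf stages were sprayed by a small size sprayer. The spray was a conventionally formulated wettable powder or emulsifiable concentrate weighed to a set active ingredient amount, diluted in water at 500 L/ha, plus 0.1% (v/v) agricultural spreader. Visual assessment on days 18 to 23 gave growth controlling degree (%), where 0 equals untreated and 100 means complete kill.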

In assay [9] the test system is soybean. The assay is described as follows: Test Example 1: foliage treatment, upland pot test. It counts as in vivo, Glycine max Merr. The following applies: crop, active ingredient 500 g/ha, observed 18th to 23rd day, 0 = non-treated, 100 = complete kill. The method in brief:
as §1

Assay [10] has as its system barnyardgrass. The assay is described as follows: Test Example 2: soil surface treatment, upland pot test. Particulars: active ingredient 500 g/ha, observed 20th to 28th day. It counts as in vivo, Echinochloa crus-galli L. In a few lines:
(§2)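 In this pre-emergence upland pot test, a small sprayer delivered the diluted compound formulation (1,500 L/ha water) to the soil surface the day after seeding. Plants were then observed, and control was scored from 0 to 100% some 20–28 days after treatment.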

The test system of assay [11] is crabgrass. The assay is described as above. It counts as in vivo, Digitaria sanguinalis L. The following applies: active ingredient 500 g/ha, observed 20th to 28th day. In a few lines: as §2
Assay [12] concerns green foxtail. The description is as above. It counts as in vivo, Setaria viridis L. The following applies: active ingredient 500 g/ha, observed 20th to 28th day. In a few lines:
as §2

Assay [13] deals with redroot pigweed. The description is as above. It counts as in vivo, Amaranthus retroflexus L. Particulars: active ingredient 500 g/ha, observed 20th to 28th day. In a few lines: as §2
Assay [14] deals with prickly sida. Described as above. It is filed as in vivo, Sida spinosa L. The following applies: active ingredient 500 g/ha, observed 20th to 28th day. In a few lines:
as §2

Assay [15] relates to velvetleaf. The description is as above. Particulars: active ingredient 500 g/ha, observed 20th to 28th day. It is filed as in vivo, Abutilon theophrasti MEDIC. The method in brief:
as §2

For assay [16], the system named is rice. The description is as above. Particulars: active ingredient 500 g/ha, observed 20th to 28th day. It is filed as in vivo, Oryza sativa L. In a few lines: as §2
The subject of assay [17] is corn. The description is as above. It counts as in vivo, Zea mays L. The following applies: active ingredient 500 g/ha, observed 20th to 28th day. The method in brief: as §2
The test system of assay [18] is soybean. The description is as above. It is filed as in vivo, Glycine max Merr. Particulars: active ingredient 500 g/ha, observed 20th to 28th day. The method in brief: as §2
Assay [19] concerns barnyardgrass. In words: Test Example 3: paddy pot test, application under submerged conditions. It counts as in vivo, Echinochloa crus-galli L. The following applies: submerged application at 0.5 leaf stage, visually observed 14 days after application, 0 = non-treated, 100 = complete kill. The method in brief: (§3)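 After sowing seeds and planting wapato tubers in flooded paddy soil, an aqueous dilution of the formulated compound was added to the 3–4 cm flood water at early leaf stage. Percent growth control relative to the untreated plot was assessed visually on day 14.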

For assay [20], the system named is japanese bulrush. The assay is described as above. The following applies: submerged application at 0.5 leaf stage, visually observed 14 days after application, 0 = non-treated, 100 = complete kill. It counts as in vivo, Scirpus juncoides. In a few lines:
as §3

For assay [21], the system named is japanese ribbon wapato. The description is as above. It is filed as in vivo, Sagittaria pygniaea. The following applies: submerged application at primary leaf stage, visually observed 14 days after application, 0 = non-treated, 100 = complete kill. In a few lines: as §3
The subject of assay [22] is rice (var. Nihonbare). In words: Test Example 3: paddy pot test, transplanted rice. It counts as in vivo, Oryza sativa L. The following applies: applied 4th day after transplantation, visually observed 21st day after application, 0 = non-treated, 100 = complete kill. In a few lines: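 Rice (2-leaf stage) was transplanted 3 cm deep into puddled, leveled paddy soil under 3–4 cm flooding. On day 4 after transplanting, diluted wettable powder or emulsifiable concentrate was pipetted onto the water at a predetermined active-ingredient dose. Growth control (0 = untreated, 100 = complete kill) was scored visually 21 days later.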

With `CC(C)C(c1cnccc1C(F)(F)F)N(C)C(=O)CC1CCCC1` (stereo not drawn) [I-165], the results for the “Growth controlling degree (%) Barnyardgrass” value in assay [1], in assay [10] and in assay [19] (active ingredient 250 g/ha) were 80%, 100% and 98%, respectively. For the same compound, the “Growth controlling degree (%) Crabgrass” value in [2] worked out at 95%; in assay [11], 100%. In addition, the “Growth controlling degree (%) Green foxtail” value worked out at 70% in [3] and 100% in [12]. Further, the “Growth controlling degree (%) Redroot pigweed” value is 70% in assay [4] and 80% in assay [13]. The “Growth controlling degree (%) Prickly sida” value in [5] was found to be 80%; in [14], 70%. The “Growth controlling degree (%) Velvetleaf” value came out at 80% in assay [6] and 50% in assay [15]. Further, the “Growth controlling degree (%) Rice” value in assay [7], in [16] and in assay [22] (active ingredient 250 g/ha) was 10% each time. For the same compound, the “Growth controlling degree (%) Corn” value in [8] is on record as 40%; in [17] it was 20%. Moreover, in [9], the “Growth controlling degree (%) Soybean” value stood at 80%. For the same compound, the “Growth controlling degree (%) Soyabean” value in assay [18] came out at 20%. Also, in assay [20] (active ingredient 250 g/ha), the “Growth controlling degree (%) Japanese bulrush” value came to 98%. Moreover, the “Growth controlling degree (%) Japanese ribbon wapato” value in [21] (active ingredient 250 g/ha) is 60%.
In the case of `CC(C)C(c1cnccc1C(F)(F)F)N(C)C(=O)C=Cc1ccc(Br)cc1` (stereo not drawn) [I-178], the results for the “Growth controlling degree (%) Barnyardgrass” value in assay [1], in [10] and in assay [19] (active ingredient 500 g/ha) were 50%, 90% and 98%, respectively. The “Growth controlling degree (%) Crabgrass” value in assay [2] came to 60%; in assay [11], 98%. In addition, the “Growth controlling degree (%) Green foxtail” value was determined as 60% in [3] and 100% in assay [12]. For the same compound, the “Growth controlling degree (%) Redroot pigweed” value in [4] is reported as 70%; in assay [13] it was 40%. Moreover, the entries for the “Growth controlling degree (%) Prickly sida” value in assay [5] and in [14] were 95% and 30%, respectively. The “Growth controlling degree (%) Velvetleaf” value in [6] came to 95%; in assay [15], 40%. For the same compound, the “Growth controlling degree (%) Rice” value is given as 40% in [7], 40% in [16] and 0% in assay [22] (active ingredient 500 g/ha). Also, the “Growth controlling degree (%) Corn” value in [8] and in [17] was 10% in each case. The “Growth controlling degree (%) Soybean” value in [9] came to 60%. The “Growth controlling degree (%) Soyabean” value in assay [18] turned out to be 0%. Further, the “Growth controlling degree (%) Japanese bulrush” value in assay [20] (active ingredient 500 g/ha) was determined as 95%. The “Growth controlling degree (%) Japanese ribbon wapato” value in assay [21] (active ingredient 500 g/ha) is given as 40%.
As to `CC(C)C(c1cnccc1C(F)(F)F)N(C)C(=O)COc1ccccc1` (stereo not drawn) [I-229], the “Growth controlling degree (%) Barnyardgrass” value in [1] worked out at 60%; in assay [10], 100%; in [19] (active ingredient 500 g/ha), 100%. For the same compound, the results for the “Growth controlling degree (%) Crabgrass” value in assay [2] and in assay [11] were 80% and 100%, respectively. In addition, the “Growth controlling degree (%) Green foxtail” value is reported as 70% in [3] and 100% in [12]. Also, the “Growth controlling degree (%) Redroot pigweed” value in assay [4] is recorded as 80%; in assay [13], 98%. Moreover, the “Growth controlling degree (%) Prickly sida” value in assay [5] was found to be 80%; in assay [14], 100%. The “Growth controlling degree (%) Velvetleaf” value in assay [6] came to 90%; in [15], 50%. The “Growth controlling degree (%) Rice” value in [7] came out at 30%; in [16] it was 50%; in assay [22] (active ingredient 500 g/ha), 0%. Further, the “Growth controlling degree (%) Corn” value in assay [8] is listed as 10%; in assay [17] it was 100%. In assay [9], the “Growth controlling degree (%) Soybean” value is on record as 50%. Moreover, the “Growth controlling degree (%) Soyabean” value in assay [18] was 10%. Moreover, the “Growth controlling degree (%) Japanese bulrush” value in assay [20] (active ingredient 500 g/ha) is given as 95%. Further, the “Growth controlling degree (%) Japanese ribbon wapato” value in assay [21] (active ingredient 500 g/ha) stood at 90%.
